Laboratory results: EP3811940B1, “SUBSTITUTED 4,5'-BITHIAZOLES AS INHIBITORS OF THE HUMAN DNA TOPOISOMERASE II” (Kemijski Institut, priority 2019, dated 2021)
Like-named read-outs stand apart in the source and are kept apart here.

Key:
MCF-7 cells = test: MTS cytotoxicity assay, MCF-7; type: cell-based, human; conditions: Homo sapiens, interval in brackets
From the text: (§1) We determined the cytotoxicity of the tested compounds on human breast cancer MCF-7 and human hepatocellular carcinoma HepG2 cancer cell lines using MTS assay. Both selected human cancer cell lines are representative and well-established systems for cell-based evaluation of potential anticancer compounds. Etoposide was again used as a positive control (PC).
(§2) In the first step we performed the initial screening of compounds 1-14 at one concentration. […] Exponentially growing cells were exposed to all compounds for 24 h and the results are represented in Figure 3A.
(§3) In vitro cytotoxicity of investigated compounds was evaluated in two human cancer cell lines: the […] cell lines. The HepG2 cells (ATCC) were cultivated at 37 °C and 5 % CO2 in MEME medium (M2414, Sigma) supplemented with 10 % FBS, 2 mM L-Glutamine, 1 % NEAA, 2.2 g/L NaHCO3, 1 mM sodium pyruvate and 100 IU/mL penicillin/ streptomycin and MCF-7 (ATCC) were cultivated in Eagle's MEM medium (M5650, Sigma), supplemented with 10 % fetal bovine serum, 2 mM glutamine, and 100 IU/mL penicillin/streptomycin. After the exposure to the tested compounds the viability of HepG2 and MCF-7 cells was determined by MTS tetrazolium reduction assay. The cells were seeded onto 96-well microplates (Nunc, TermoFisher Scientific, Waltham, MA, USA) at densities of 8000 cells per well (HepG2) and 7000 cells per well (MCF-7) in […] growth medium and incubated overnight to attach. The next day, the growth medium was replaced by the fresh complete growth medium containing appropriate concentrations of the compounds. […] Finally, the absorbance was measured at wavelength of 490 nm using a Microplate Reader (Synergy MX, BioTek, Winooski, VT, USA). […] Assay was performed at 5 concentrations of each compound; 2, 25, 50, 100 and 200 µM for compounds 1, 7 and 14 and 1, 12.5, 25, 50, 100 µM for compounds 9 and 10. […] Cell viability was determined by comparing the OD (optical density) of the wells containing the cells treated with investigated compounds with those of solvent control cells and presented as % of cell viability ± SD. Experiments were performed three times independently each time in at least three replicates. EC50 values were calculated by non-linear regression analysis using GraphPad Prism 7.0 Software. Statistical significance between treated groups and the control was determined by One-way analysis of variance and Dunnett's Multiple Comparison Test.

human topo IIβ = molecular target: T1, human topo IIβ (Homo sapiens, UniProt Q02880); test: kDNA decatenation assay catalysed by human topo IIβ; type: biochemical; conditions: for % Decatenated Assay 1 / % Decatenated Assay 2: % of decatenated kDNA; for % Decatenated Average: average of two assays
T1 construct: purchased Inspiralis (Norwich, UK)
Procedure: One U of human topo II (α or β) was incubated with 200 ng kDNA in a 30 µL reaction at 37°C for 30 minutes under the following conditions: 50 mM Tris HCl (pH 7.5), 125 mM NaCl, 10 mM MgCl2, 5 mM DTT, 0.5 mM EDTA, 0.1 mg/ml bovine serum albumin (BSA) and 1 mM ATP. Compounds 1 and 9 were serially diluted in DMSO and added to the reaction mixture before the addition of the enzyme. Etoposide was used as a control compound. Each reaction was then stopped by the addition of 30 µL chloroform/iso-amyl alcohol ([…]) and 30 µL Stop Dye (40 % sucrose (w/v), 100 mM Tris.HCl (pH 7.5), 10 mM EDTA, 0.5 µg/mL bromophenol blue), before being loaded on a 1% TAE gel run at 85 V for 90 minutes. Assays were performed at 4 concentrations of ligand: 3.9, 31.5, 125 and 500 µM. The final DMSO concentration in all reactions was 1 % (v/v).
(§4) Bands were visualized by the ethidium bromide staining for 15 minutes and destaining for subsequent 10 minutes. Gels were scanned using the documentation equipment (GeneGenius, Syngene, Cambridge, UK) and inhibition levels were calculated from band data obtained with gel scanning software (GeneTools, Syngene, Cambridge,UK). Experiment was performed in duplicates for all compounds.

HepG2 cells = test: MTS cytotoxicity assay, HepG2; type: cell-based, human; conditions: Homo sapiens, interval in brackets
From the text: as §1, §2, §3

human topo IIα = molecular target: T2, human topo IIα (Homo sapiens, UniProt P11388); test: human topo IIα cleavage assay (linear DNA); type: biochemical
T2 construct: purchased Inspiralis (Norwich, UK)
Procedure: To determine if compounds act as topo II poisons, cleavage assay was performed for compounds 1 and 9.
Selected compounds were tested at four concentrations: 3.9, 31.5, 125 and 500 µM. The reaction was then incubated for additional 30 minutes with 0.2 % SDS and 0.5 µg/µL proteinase K. Subsequently the reaction was stopped by adding 30 µL of chloroform/iso-amyl alcohol ([…]) and 30 µL of Stop Dye (40 % sucrose (w/v), 100 mM Tris.HCl (pH 7.5), 10 mM EDTA, 0.5 µg/mL bromophenol blue), before sample being loaded on the 1 % TAE gel run at 80 V for 2 hours.
as §4, with “cleavage” for “inhibition”, “from the” for “from”, “by the” for “with”, “The human topo IIα cleavage assay” for “Experiment”, “collaboration with Inspiralis (Norwich, UK).” for “duplicates for all compounds.”

[1] = MCF7, read-out: EC50 [µM] MCF-7 (24h), 24h exposure
[2] = MCF7, 72h exposure, read-out: EC50 [µM] MCF-7 (72h)
[3] = HepG2, read-out: EC50 [µM] HepG2 (24h), 24h exposure
[4] = HepG2, 72h exposure, read-out: EC50 [µM] HepG2 (72h)

T1 sequence (Q02880 whole entry): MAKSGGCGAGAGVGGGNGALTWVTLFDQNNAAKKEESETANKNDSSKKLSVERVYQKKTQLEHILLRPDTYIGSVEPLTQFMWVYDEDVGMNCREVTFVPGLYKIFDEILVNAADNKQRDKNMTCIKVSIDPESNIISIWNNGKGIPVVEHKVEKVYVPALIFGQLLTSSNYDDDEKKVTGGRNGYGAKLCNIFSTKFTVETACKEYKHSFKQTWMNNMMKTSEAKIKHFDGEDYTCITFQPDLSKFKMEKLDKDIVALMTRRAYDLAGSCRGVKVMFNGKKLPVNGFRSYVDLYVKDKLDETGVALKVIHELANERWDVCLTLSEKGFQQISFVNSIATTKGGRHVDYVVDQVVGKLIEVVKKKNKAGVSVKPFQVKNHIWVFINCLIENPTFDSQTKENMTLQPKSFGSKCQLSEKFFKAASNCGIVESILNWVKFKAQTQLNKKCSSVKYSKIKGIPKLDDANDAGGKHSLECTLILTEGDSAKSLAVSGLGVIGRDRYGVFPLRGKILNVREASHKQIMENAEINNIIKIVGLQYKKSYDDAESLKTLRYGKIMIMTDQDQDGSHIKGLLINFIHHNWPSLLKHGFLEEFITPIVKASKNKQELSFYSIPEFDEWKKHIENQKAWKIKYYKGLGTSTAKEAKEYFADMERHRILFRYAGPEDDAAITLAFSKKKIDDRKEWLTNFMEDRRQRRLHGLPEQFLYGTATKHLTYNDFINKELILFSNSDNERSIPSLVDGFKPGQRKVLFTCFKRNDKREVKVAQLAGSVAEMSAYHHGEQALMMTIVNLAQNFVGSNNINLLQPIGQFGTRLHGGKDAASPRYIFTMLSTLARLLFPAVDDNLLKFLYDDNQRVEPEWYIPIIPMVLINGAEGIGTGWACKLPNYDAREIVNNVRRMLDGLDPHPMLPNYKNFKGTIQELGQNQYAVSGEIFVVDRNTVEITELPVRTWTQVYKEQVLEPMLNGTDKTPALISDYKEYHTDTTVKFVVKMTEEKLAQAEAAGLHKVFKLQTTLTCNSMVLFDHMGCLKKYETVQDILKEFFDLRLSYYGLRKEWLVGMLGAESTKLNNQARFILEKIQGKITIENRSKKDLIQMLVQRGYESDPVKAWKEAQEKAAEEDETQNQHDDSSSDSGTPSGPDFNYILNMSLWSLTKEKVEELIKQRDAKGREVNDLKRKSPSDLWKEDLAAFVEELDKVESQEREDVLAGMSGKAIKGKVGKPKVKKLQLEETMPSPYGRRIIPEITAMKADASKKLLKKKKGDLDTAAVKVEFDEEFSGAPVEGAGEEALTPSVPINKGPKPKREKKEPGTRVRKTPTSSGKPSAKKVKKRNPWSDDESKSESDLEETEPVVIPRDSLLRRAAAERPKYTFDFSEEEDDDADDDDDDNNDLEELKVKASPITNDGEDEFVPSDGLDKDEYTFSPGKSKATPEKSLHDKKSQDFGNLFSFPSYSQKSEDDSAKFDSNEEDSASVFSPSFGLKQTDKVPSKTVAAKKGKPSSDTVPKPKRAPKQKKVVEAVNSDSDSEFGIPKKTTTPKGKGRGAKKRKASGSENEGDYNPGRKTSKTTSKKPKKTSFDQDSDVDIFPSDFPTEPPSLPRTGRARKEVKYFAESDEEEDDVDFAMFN
T2 sequence (P11388 whole entry): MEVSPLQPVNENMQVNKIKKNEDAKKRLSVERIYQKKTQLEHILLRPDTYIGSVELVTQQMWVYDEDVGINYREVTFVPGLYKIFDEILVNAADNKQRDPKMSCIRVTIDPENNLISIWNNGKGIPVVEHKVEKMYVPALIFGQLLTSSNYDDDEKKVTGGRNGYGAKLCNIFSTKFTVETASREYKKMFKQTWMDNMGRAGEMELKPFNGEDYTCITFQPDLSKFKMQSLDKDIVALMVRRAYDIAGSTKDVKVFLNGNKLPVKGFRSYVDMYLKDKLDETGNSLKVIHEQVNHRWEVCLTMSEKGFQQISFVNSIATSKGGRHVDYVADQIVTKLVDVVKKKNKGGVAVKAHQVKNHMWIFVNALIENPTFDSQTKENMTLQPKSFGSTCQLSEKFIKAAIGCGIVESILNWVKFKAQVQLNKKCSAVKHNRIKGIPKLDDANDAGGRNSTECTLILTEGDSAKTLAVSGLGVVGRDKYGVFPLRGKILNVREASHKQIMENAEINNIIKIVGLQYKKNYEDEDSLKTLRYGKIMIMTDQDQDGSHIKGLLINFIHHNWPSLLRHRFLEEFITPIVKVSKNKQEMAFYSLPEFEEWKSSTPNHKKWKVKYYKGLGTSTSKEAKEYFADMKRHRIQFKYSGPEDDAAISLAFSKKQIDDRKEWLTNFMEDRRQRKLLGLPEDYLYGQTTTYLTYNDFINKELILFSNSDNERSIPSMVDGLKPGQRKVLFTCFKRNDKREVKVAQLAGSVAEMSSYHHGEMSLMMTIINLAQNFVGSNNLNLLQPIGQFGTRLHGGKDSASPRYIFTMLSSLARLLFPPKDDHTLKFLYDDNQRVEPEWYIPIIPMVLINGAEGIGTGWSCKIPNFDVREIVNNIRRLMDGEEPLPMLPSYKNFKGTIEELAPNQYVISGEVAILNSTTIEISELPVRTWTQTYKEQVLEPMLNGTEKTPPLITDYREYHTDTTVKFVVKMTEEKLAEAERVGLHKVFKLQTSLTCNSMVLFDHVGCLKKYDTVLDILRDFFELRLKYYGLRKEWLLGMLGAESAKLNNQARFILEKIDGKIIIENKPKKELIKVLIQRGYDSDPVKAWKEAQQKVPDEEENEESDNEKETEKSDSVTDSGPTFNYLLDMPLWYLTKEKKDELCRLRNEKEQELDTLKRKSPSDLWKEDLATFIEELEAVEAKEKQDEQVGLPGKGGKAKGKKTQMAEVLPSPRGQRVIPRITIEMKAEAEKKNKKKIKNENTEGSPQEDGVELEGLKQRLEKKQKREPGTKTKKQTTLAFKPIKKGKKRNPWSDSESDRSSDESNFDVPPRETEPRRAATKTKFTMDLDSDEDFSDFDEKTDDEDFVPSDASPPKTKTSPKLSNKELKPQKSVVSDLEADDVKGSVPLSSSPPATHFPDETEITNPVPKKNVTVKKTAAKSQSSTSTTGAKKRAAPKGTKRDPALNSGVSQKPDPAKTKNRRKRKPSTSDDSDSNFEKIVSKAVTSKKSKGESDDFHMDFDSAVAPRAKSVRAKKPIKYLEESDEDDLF

% Decatenated Assay 1 (human topo IIβ; 3.9 µM) [%] | % Decatenated Assay 2 (human topo IIβ; 3.9 µM) [%] | % Decatenated Assay 1 (human topo IIβ; 31.5 µM) [%] | % Decatenated Assay 2 (human topo IIβ; 31.5 µM) [%] | % Decatenated Average (human topo IIβ; 31.5 µM) [%] | % Decatenated Assay 1 (human topo IIβ; 125 µM) [%] | % Decatenated Assay 2 (human topo IIβ; 125 µM) [%] | % Decatenated Average (human topo IIβ; 125 µM) [%] | % Decatenated Assay 1 (human topo IIβ; 500 µM) [%] | % Decatenated Assay 2 (human topo IIβ; 500 µM) [%] | % Decatenated Average (human topo IIβ; 500 µM) [%] | % Linear Average (human topo IIα; 3.9 µM) [%] | % Linear (human topo IIα; 3.9 µM, % Linear) [%] | % Linear (human topo IIα; 3.9 µM, first % Linear column) [%] | % Linear Average (human topo IIα; 31.5 µM) [%] | % Linear (human topo IIα; 31.5 µM, % Linear) [%] | Structure (SMILES) | EC50 (MCF-7 cells; [1]) [µM] | EC50 (MCF-7 cells; [2]) [µM] | EC50 (HepG2 cells; [3]) [µM] | EC50 (HepG2 cells; [4]) [µM] | further results
87.0 | 75.6 | 80.1 | 73.3 | 76.7 | 30.5 | 21.7 | 26.1 | 17.5 | 5.3 | 11.4 | 6.26 | 7.03 | 5.49 | 7.26 | 6.75 | CC(=O)Nc1ccc(Nc2nc(-c3sc(NC(C)=O)nc3C)cs2)cc1 [Compound 9, N-(4-((2'-acetamido-4'-methyl-[4,5'-bithiazol]-2-yl)amino)phenyl)acetamide] | 15 | 13.8 | 73.5 | 23.5 | % Decatenated Average (human topo IIβ; 3.9 µM): 81.3%; inhibition at 125 µM (human topo IIβ; 125 µM): 73.9%; inhibition at 500 µM (human topo IIβ; 500 µM): 88.6%; % Linear (human topo IIα; 31.5 µM, first % Linear column): 7.77%; % Linear Average (human topo IIα; 125 µM): 4.72%; % Linear (human topo IIα; 125 µM, % Linear): 4.60%; % Linear (human topo IIα; 125 µM, first % Linear column): 4.84%; % Linear Average (human topo IIα; 500 µM): 2.60%; % Linear (human topo IIα; 500 µM, % Linear): 2.25%; % Linear (human topo IIα; 500 µM, first % Linear column): 2.95%
87.3 | 95.5 | 78.6 | 79.7 | 79.2 | 0 | 0 | 0 | 0 | 0 | 0 | 6.81 | 5.57 | 8.05 | 7.04 | 7.77 | Cc1nc(N)sc1-c1csc(Nc2ccc(C(F)(F)F)cc2)n1 [Compound 1, 4'-methyl-N2-(4-(trifluoromethyl)phenyl)-[4,5'-bithiazole]-2,2'-diamine] | 65 | 59.5 | 72.8 | 46.8 | % Decatenated Average (human topo IIβ; 3.9 µM): 91.3%; inhibition at 31.5 µM (human topo IIβ; 31.5 µM): 20.8%; % of inhibition of decatenation (human topo IIβ; 125 µM): fully inhibited; % of inhibition of decatenation (human topo IIβ; 500 µM): fully inhibited; % Linear (human topo IIα; 31.5 µM, first % Linear column): 6.32%; % Linear Average (human topo IIα; 125 µM): 2.94%; % Linear (human topo IIα; 125 µM, % Linear): 2.85%; % Linear (human topo IIα; 125 µM, first % Linear column): 3.02%; % Linear Average (human topo IIα; 500 µM): 2.72%; % Linear (human topo IIα; 500 µM, % Linear): 2.98%; % Linear (human topo IIα; 500 µM, first % Linear column): 2.45%
100.0 | 100.0 | 94.0 | 92.8 | 93.4 | 24.6 | 23.1 | 23.9 | 150 | 14.4 | 14.7 | 17.32 | 11.88 | 22.76 | 34.63 | 36.26 | COc1cc([C@@H]2c3cc4c(cc3[C@@H](O[C@@H]3O[C@@H]5CO[C@@H](C)O[C@H]5[C@H](O)[C@H]3O)[C@H]3COC(=O)[C@H]23)OCO4)cc(OC)c1O [Etoposide, etoposide, reference compound] | 320 | 12.6 | 196 | 25.8 | % Linear (human topo IIα; 31.5 µM, first % Linear column): 33.00%; % Linear Average (human topo IIα; 125 µM): 41.13%; % Linear (human topo IIα; 125 µM, % Linear): 36.91%; % Linear (human topo IIα; 125 µM, first % Linear column): 45.35%; % Linear Average (human topo IIα; 500 µM): 45.71%; % Linear (human topo IIα; 500 µM, % Linear): 48.40%; % Linear (human topo IIα; 500 µM, first % Linear column): 43.03%; amount of linear DNA (poison activity) (human topo IIα; titration 3.9, 31.5, 125 and 500 µM, result in words): increased amount of linear DNA
